# According to ChEMBL document CHEMBL2331299, “Basic N-interlinked imipramines show apoptotic activity against malignant cells including Burkitt's lymphoma” (Bioorg Med Chem Lett, 2013):
# Calls of active or inactive are those of the source. The calls are words filed in the database; no cut-off is given here.
# What was measured:
# [1] = system: DG-75; test: Reduction in cell viability of human DG75 cells after 24 hrs by Alamar blue viability assay; assay type: functional, cell-based; settings: DG-75, 24 h
# [2] = system: MUTU-I; test: Induction of apoptosis in human MUTU-I cells assessed as decrease in cells at G2/M phase measured at 2.5 uM after 24 hrs by propidium iodide assay; assay type: functional, cell-based
# [3] = Reduction in cell viability of human MUTU-I cells after 24 hrs by Alamar blue viability assay; assay type: functional, cell-based
# [4] = system: HeLa; test: Induction of apoptosis in human HeLa cells assessed as decrease in cells at G2/M phase measured at 2.5 uM after 24 hrs by propidium iodide assay; assay type: functional, cell-based
# [5] = system: DG-75; test: Induction of apoptosis in human DG75 cells assessed as decrease in cells at G2/M phase measured at 2.5 uM after 24 hrs by propidium iodide assay; assay type: functional, cell-based
# [6] = system: HeLa; test: Reduction in cell viability of human HeLa cells after 24 hrs by Alamar blue viability assay; assay type: functional, cell-based
# [7] = system: HeLa; test: Induction of apoptosis in human HeLa cells assessed as cell death at 2.5 uM after 24 hrs by flow cytometry (reference value: 7 +/- 1.9%); assay type: functional
# [8] = system: DG-75; test: Induction of apoptosis in human DG75 cells assessed as increase in cells at G2/M phase measured at 2.5 uM after 24 hrs by propidium iodide assay; assay type: functional, cell-based
# [9] = system: DG-75; test: Induction of apoptosis in human DG75 cells assessed as cell death at 2.5 uM after 24 hrs by flow cytometry (reference value: 0.8 +/- 0.25%); assay type: functional
# [10] = system: MUTU-I; test: (§1) Induction of apoptosis in human MUTU-I cells assessed as cell death at 2.5 uM after 24 hrs by flow cytometry (reference value: 3.7 +/- 0.4%); assay type: functional
# [11] = system: HeLa; test: Induction of apoptosis in human HeLa cells assessed as PARP cleavage by Western blotting analysis; assay type: functional, cell-based
# [12] = system: MUTU-I; test: Induction of apoptosis in human MUTU-I cells assessed as cell death at 2.5 uM after 2 hrs by flow cytometry; assay type: functional, cell-based
# [13] = system: HeLa; test: Induction of apoptosis in human HeLa cells assessed as increase in caspase 3/7 activation by luminescence plate reader; assay type: functional, cell-based
# [14] = system: MUTU-I; test: Induction of apoptosis in human MUTU-I cells assessed as cell death at 2.5 uM in presence of NAC ROS inhibitor; assay type: functional, cell-based
# [15] = system: HeLa; test: Induction of apoptosis in human HeLa cells assessed as increase in intracellular cysteine proteases; assay type: functional, cell-based
# [16] = system: MUTU-I; test: Induction of apoptosis in human MUTU-I cells assessed as increase in intracellular cysteine proteases; assay type: functional, cell-based
# [17] = system: MUTU-I; test: Induction of apoptosis in human MUTU-I cells assessed as PARP cleavage by Western blotting analysis; assay type: functional, cell-based
# [18] = molecular target: Sodium-dependent serotonin transporter (Homo sapiens, UniProt P31645); test: Inhibition of human SERT expressed in HEK293-MSR cells by 5-HT uptake assay; assay type: cell-based
# Chain of Sodium-dependent serotonin transporter (P31645 whole entry): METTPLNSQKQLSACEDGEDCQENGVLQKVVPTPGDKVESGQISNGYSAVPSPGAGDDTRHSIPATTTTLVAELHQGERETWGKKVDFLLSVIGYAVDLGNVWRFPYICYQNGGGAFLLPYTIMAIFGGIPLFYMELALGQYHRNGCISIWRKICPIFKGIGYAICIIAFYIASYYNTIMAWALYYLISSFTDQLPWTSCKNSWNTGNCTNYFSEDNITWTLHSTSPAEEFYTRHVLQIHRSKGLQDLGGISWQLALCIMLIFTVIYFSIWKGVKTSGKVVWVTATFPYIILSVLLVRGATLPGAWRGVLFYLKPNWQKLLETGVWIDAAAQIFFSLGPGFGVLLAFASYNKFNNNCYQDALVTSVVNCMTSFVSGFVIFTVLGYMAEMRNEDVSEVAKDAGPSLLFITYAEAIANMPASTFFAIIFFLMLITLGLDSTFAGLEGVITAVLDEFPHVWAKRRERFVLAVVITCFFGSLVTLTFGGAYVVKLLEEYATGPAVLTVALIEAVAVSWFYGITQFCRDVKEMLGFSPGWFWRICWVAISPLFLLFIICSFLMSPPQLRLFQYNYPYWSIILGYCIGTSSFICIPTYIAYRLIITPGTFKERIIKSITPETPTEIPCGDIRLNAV
# [19] = as §1; assay type: functional
# [20] = system: DG-75; test: Induction of apoptosis in human DG75 cells assessed as cell death at 2.5 uM in presence of NAC ROS inhibitor; assay type: functional, cell-based
# [21] = system: DG-75; test: Induction of apoptosis in human DG75 cells assessed as PARP cleavage by Western blotting analysis; assay type: functional, cell-based
# [22] = system: HeLa; test: Induction of apoptosis in human HeLa cells assessed as cell death at 2.5 uM after 8 hrs by flow cytometry; assay type: functional, cell-based
# [23] = system: DG-75; test: Induction of apoptosis in human DG75 cells assessed as cell death at 2.5 uM measured after 24 hrs by flow cytometry; assay type: functional, cell-based
# [24] = system: HeLa; test: Induction of apoptosis in human HeLa cells assessed as cell death at 2.5 uM in presence of NAC ROS inhibitor; assay type: functional, cell-based
# [25] = system: DG-75; test: Induction of apoptosis in human DG75 cells assessed as increase in caspase 3/7 activation by luminescence plate reader; assay type: functional, cell-based
# [26] = system: MUTU-I; test: Induction of apoptosis in human MUTU-I cells assessed as increase in caspase 3/7 activation by luminescence plate reader; assay type: functional, cell-based
SMILES,IC50 [1] [µM],Activity [2],IC50 [3] [µM],Activity [4],Activity [5],IC50 [6] [µM],Activity [7],Activity [9],Activity [11],Activity [12],Activity [13],Activity [14],Activity [15],Activity [16],Activity [17],IC50 [18] [µM],Activity [19] [%],Activity [20],Activity [21],Activity [22],other results
CNCCCN1c2ccccc2CCc2ccccc21 [DESIPRAMINE],39.8,inactive,7.94,inactive,inactive,17.8,–,–,–,–,–,–,–,–,–,–,–,–,–,–,–
CC(=O)O[C@H]1C(=O)[C@@]2(C)[C@H]([C@H](OC(=O)c3ccccc3)[C@]3(O)C[C@H](OC(=O)[C@H](O)[C@@H](NC(=O)c4ccccc4)c4ccccc4)C(C)=C1C3(C)C)[C@]1(OC(C)=O)CO[C@@H]1C[C@@H]2O,–,–,–,–,–,–,Active,inactive,–,–,–,–,–,–,–,–,–,–,–,–,Activity [8]: Active; Activity [10]: Active
CN(C)CCCN1c2ccccc2CCc2ccccc21 [IMIPRAMINE],> 50,inactive,14.1,inactive,inactive,40.7,–,–,–,–,–,–,–,–,–,–,–,–,–,–,–
CN(CCCN1c2ccccc2CCc2ccccc21)CCOCCN(C)CCCN1c2ccccc2CCc2ccccc21,1.89,Active,1.05,Active,Active,1.74,61.7%,22.8%,Active,Active,Active,Active,Active,Active,Active,6,66.6,Active,inactive,Active,Activity [23]: Active; Activity [24]: Active; Activity [25]: inactive; Activity [26]: Active
CN(CCCN1c2ccccc2CCc2ccccc21)C(=O)COCCOCC(=O)N(C)CCCN1c2ccccc2CCc2ccccc21,18.6,inactive,5.75,inactive,inactive,22.9,–,–,–,–,–,–,–,–,–,46,–,–,–,–,–
CN(CCCN1c2ccccc2CCc2ccccc21)CCOCCOCCN(C)CCCN1c2ccccc2CCc2ccccc21,1.51,Active,0.62,Active,Active,1.41,44.4%,40.9%,Active,Active,Active,Active,Active,Active,Active,4.8,56.2,Active,inactive,Active,Activity [23]: Active; Activity [24]: Active; Activity [25]: inactive; Activity [26]: Active
CN(CCCN1c2ccccc2CCc2ccccc21)CCOCCOCCOCCN(C)CCCN1c2ccccc2CCc2ccccc21,1.91,Active,1.15,Active,Active,1.58,46%,54.6%,Active,Active,Active,Active,Active,Active,Active,5.5,46.3,Active,inactive,Active,Activity [23]: Active; Activity [24]: Active; Activity [25]: inactive; Activity [26]: Active
